Laboratory results: patent publication US6723897B2, “Methods for controlling gibberellin levels” (Monsanto Technology, LLC, priority 1998, dated 2004)

What was measured:
Format in all cases: in vivo, Glycine max
[1] = tested on: constitutively GA-deficient transgenic dwarf soybean line 719; test: Experiment I greenhouse test, seed imbibition, GA-deficient soybean; design: Observation on Transgenic Line 719: key: −1: treated plants are shorter as compared to untreated plants; 0: treated plants had the same stature as untreated plants; 1: treated plants are slightly elongated as compared to untreated plants; 2: treated plants are moderately elongated as compared to untreated plants; 3: treated plants are highly elongated as compared to untreated plants; 4: treated plants are extremely elongated as compared to untreated plants; settings: 0.25 mg/ml
Excerpt: Seeds are covered with 0.5″ of vermiculite.

[2] = tested on: constitutively GA-deficient transgenic dwarf soybeans (line 719); test: Summary of first two greenhouse experiments, rescue of GA-deficient soybeans; design: key: +: transgenic soybeans are rescued; 0: transgenic soybeans are not rescued
Method in brief: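 Seeds of wild-type A3237 or GA-deficient dwarf line 719 imbibed 6 h in ethanol-water compound solutions (0.25, 0.025, 0.0025 mg/ml; GA9 at 0.125, 0.0125, 0.00125 mg/ml; Experiment I 0.25 mg/ml only), 20 seeds per treatment, then grown in greenhouse. Dwarf/intermediate/tall counts, plant height and rescue uniformity recorded after three weeks.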

[3] = tested on: constitutively GA-deficient transgenic dwarf soybean line 719; test: Experiment IV field test, seed imbibition, compacted soil; settings: for No. of Dwarfs Not Rescued / Total Plants: imbibed 8 hours; for Total Plants: 25 seeds planted; for % of Dwarfs Rescued: relative to 8.5 true dwarfs per plot
Excerpt: The objective of these experiments is to determine if there is a greenhouse to field translation of results with selected GA compounds with respect to rescue of constitutively GA-deficient transgenic dwarf soybeans and elongation of wild-type plants. […] For the first field trial, the solutions previously used for the second greenhouse test, and stored in the freezer, are employed. […] For comparison, freshly prepared solutions of GA3 are also employed. The compounds tested included kaurenoic acid, fresh GA3, stored GA3, GA3-3-acetate, GA5, GA9, and GA12. […] Seeds of line […] are imbibed for 8 hours. Untreated dry seeds served as controls. After imbibition, the remaining solutions are returned to the freezer. Seeds are kept on the benchtop at room temperature overnight. […] Untreated dry seeds served as controls. Following planting line 719, all plots (both […] and line 719) are compacted by driving an all-terrain vehicle over the planted rows twice, and watered. All GA solutions are discarded. The results are shown in Table 15 for constitutively GA-deficient transgenic dwarf line 719 only as insufficient […] germinated to make any useful observations. Observations included number of plants that germinated, number rescued, and visual observations. Two points should be noted concerning the data in Table 15. […] Next, the number of dwarfs not rescued in any treatment is subtracted from 8.5.

[4] = tested on: constitutively GA-deficient transgenic dwarf soybean line 719; test: Fifth and sixth field tests, emergence after seed imbibition; settings: for Total Emerged: 50 seeds imbibed 5 hours
Procedure: Fresh stock solutions of compounds are prepared for this test. Kaurenoic acid is tested at 0.025 and 0.25 mg/ml; GA3 is tested at 0.025, 0.25, and 0.5 mg/ml; GA3-3-acetate at 0.025 and 0.25 mg/ml; GA5 at 0.025 and 0.25 mg/ml; GA9 at 0.025 and 0.04 mg/ml; and GA12 at 0.025 and 0.25 mg/ml. Stock solutions are prepared in ethanol in 50 ml plastic centrifuge tubes; deionized water is then added to make up the volumes to 30 ml. The final solutions contained 300 μl ethanol in 30 mls. […] Seeds are imbibed for 6 hours, and planted 1″ deep in a single row in moist to wet soil. They are then covered with dry soil, and the row is compacted twice with an all-terrain vehicle. Untreated dry seeds served as controls. The GA solutions are placed on dry ice until reuse the next day.
The next day, additional seeds of constitutive transgenic dwarf line 719 (50 seeds/treatment) are imbibed in the remaining treatment solutions for 5 hours, and planted in moist soil. The rows are compacted twice.

C=C1C[C@@]23CC[C@H]4[C@@](C)(CCC[C@@]4(C)C(=O)O)[C@@H]2CC[C@@H]1C3 [kaurenoic acid]
effect in both the constitutive transgenic dwarf and wild-type soybean lines ([1]; imbibition, lines 719 and A3237): rescue (elongated hypocotyls) with very little elongation | Observation on Transgenic Line 719 ([1]; seeds imbibed 5 hours): 1 | Observation on Transgenic Line 719, remark in words ([1]; seeds imbibed 5 hours): some rescue | Rescue of GA-deficient soybeans ([2]; 0.0025 mg/ml solution (ethanol-water)): 0 | Rescue of GA-deficient soybeans ([2]; 0.025 mg/ml solution (ethanol-water)): 0 | field result on line 719 in words ([3]; over the rates tested (0.0025-0.25 mg/ml)): poor uniformity in plant height | No. of Dwarfs Not Rescued ([3]; stored solution 0.0025 mg/ml): 5 | Total Plants ([3]; stored solution 0.0025 mg/ml): 23 | % of Dwarfs Rescued ([3]; stored solution 0.0025 mg/ml): 41.2% | No. of Dwarfs Not Rescued ([3]; stored solution 0.025 mg/ml): 4 | Total Plants ([3]; stored solution 0.025 mg/ml): 17 | % of Dwarfs Rescued ([3]; stored solution 0.025 mg/ml): 52.9% | No. of Dwarfs Not Rescued ([3]; stored solution 0.25 mg/ml): 6 | Total Plants ([3]; stored solution 0.25 mg/ml): 22 | % of Dwarfs Rescued ([3]; stored solution 0.25 mg/ml): 29.4% | Visual Observations on Transgenic Line 719 ([4]; 0.025 mg/ml): Poor rescue | Total Emerged ([4]; 0.025 mg/ml): 20 | Visual Observations on Transgenic Line 719 ([4]; 0.25 mg/ml): Poor stand | Total Emerged ([4]; 0.25 mg/ml): 10
